Measured values from patent US20020040062A1, “Protein kinase C activators and their use in decreasing expression of cell antigens” (The Trustees of Columbia University, priority 1993, published 2002).
Marks after values point to notes of the source that are not given here.

Columns and labels:
Format in all cases: cell-based, human
HLA Class II antigens = assay: FACS analysis of HLA Class II antigen surface expression in T47D cells; settings: for HLA Class II level of upregulation versus untreated control cells (equivalent to 1.0): presence or absence of 0.1 μg/ml H-7; for HLA Class II relative increase in expression versus untreated controls (equivalent to 1.0): presence or absence of 1.0 μg/ml H-7; for fold increase in HLA Class II expression: 500 units/ml IFN-α, IFN-β or IFN-γ as in Table 3
From the text: (§1) IgG1 murine monoclonal antibody Cu18 and Cu46 recognize two different epitopes of a highly restricted breast carcinoma associated glycoprotein of Mr 225,000 to 250,000 (BCA 225). This TAA is expressed intracytoplasmically and on the membrane of 94% of breast tumors tested and in the T47D human breast carcinoma cell line. BCA 225 is shed into the culture medium by T47D cells and into the sera of breast cancer patients. IgG2a monoclonal antibody L243 (anti HLA Class II-DR) recognizes a monomorphic HLA Class II-DR-α epitope (ATCC M355). Monoclonal antibody CL203.4 [40], which recognizes ICAM-I, was kindly provided by Dr. S. Ferrone, New York Medical College, NY. The c-erbB-2 monoclonal antibody which recognizes the extracellular domain of c-erbB-2 was obtained from Triton Biosciences, Inc., Alamedia, Calif. Monoclonal antibodies Cu18 and Cu46 were used at 0.05 μg/ml and monoclonal antibodies interacting with HLA Class II-DR, ICAM-1 and c-erbB-2 were used at 10 μg/ml.
(§2) T47D cells treated with the various compounds were analyzed by flow cytometry using appropriate monoclonal antibody concentrations as described previously. Briefly, 1×10^5 cells were incubated with the test antibody for 30 min at 4° C., washed 3× with PBS and incubated with a goat a mouse F (ab)2 FITC conjugated test antibody at a 1:40 dilution for 30 min at 4° C. Cells were then washed 3× with PBS and analyzed on a FACStar (Beckon Dickinson, Mountain View, Calif.) or a Coulter Epics IV FACS (Coulter, Hialeah, Fla.). Results are expressed as mean fluorescence intensity (MFI) units which were determined as described previously. MFI=(mean channel fluorescence in fluorescence positive antibody-binding cells×% of fluorescence positive antibody-binding cells)−(mean channel fluorescence in unstained cells×% of fluorescence positive cells in the unstained population). All studies were performed a minimum of three or four times with duplicate samples in each experiment.

BCA 225 [1] = assay: FACS analysis of BCA 225 surface expression in T47D cells; settings: 72 hr; for BCA 225 Expression, level of enhancement relative to control (equivalent to 1.0): presence or absence of 0.1 μg/ml H-7
From the text: as §1, with “μg/ml. For each experiment, isotype matched control backgrounds (IgG for Cu18, Cu46 and ICAM-1, IgG2a for HLA Class Ii and IgG2b for c-erbB-2) were subtracted from the experimental results. Background from antimouse IgG FITC antibody was also subtracted from experimental results. Applicants never observed backgrounds higher than 2% of total cells for isotypic mouse IgG or higher than 5% for antimouse IgG FITC.” for “μg/ml.”
as §2, with “experiment. Replicate samples within individual experiments varied by ≦10% and variation between experiments were generally ≦20%.” for “experiment.”

BCA 225 [2] = assay: BCA 225 shedding into culture medium, double-determinant ELISA; settings: T47D cells; for BCA 225 Shedding / BCA 225 Shedding, level of enhancement relative to control (equivalent to 1.0) / BCA 225 Shedding, relative change in comparison with controls (equivalent to 1.0): 72 hr; for ability to induce shedding of BCA 225: Table 2
Procedure: (§3) After appropriate incubation times with the various compounds cell lysates were prepared from T47D cells. Cells were washed 3× in PBS, pH 7.6, pelleted and incubated for 1 hr at room temperature in 20 mM Tris HCl, pH 7.4, with PMSF. Cultures were then homogenized with a Teflon homogenizer, centrifuged at 3000 RPM for 10 min at 4° C. and the supernatant was mixed 1:2 with 20 mM Tris-HCl, pH 7.4, containing 0.5% NP40 (Sigma). After 1 hr at 4° C., the mixture was spun at 3000 RPM for 10 min and the supernatant was passed through an EXTRACTIGEL column (Pierce, Ill.) to remove excess detergent. Protein concentration was determined by the BCA micro-method (Pierce, Ill.). BCA 225 levels in cell extracts and supernatants from control and treated T47D cells were quantitated using a double-determinant ELISA assay. Briefly, Cu18 monoclonal antibody coated Nunc Immunoplates (Nunc, Denmark) were blocked with 1% BSA (Sigma, RIA Reagent Grade) and incubated with a 1:2 dilution of supernatant in duplicate. Standard values for a partially purified BCA 225 preparation were used at a range of 0 to 10 μg/ml in RPMI 1640 plus 10% FBS (T47D growth medium). After 2 hr incubation and three washings with PBS 0.1% Tween 20 a Cu46 monoclonal antibody conjugated to peroxidase was applied to the plate, incubated for 2 hr, washed 6× in PBS 0.1% Tween 20 and the reaction was developed with […] OPD (Sigma, St. Louis) and 4 μl of 30% H2O2 in McIlvans buffer, pH […]. The plates were read on a Dynatech Elisa reader and a linear standard curve was generated and used to calculate the relative amount of BCA 225 in cell lysates and shed into the culture medium. Results were adjusted to ng BCA 225 per mg of protein, or per 1×10^6 cells. Replicate samples varied by ≦10% and replicate experiments varied by ≦20%.

BCA 225 [3] = assay: BCA 225 synthesis, double-determinant ELISA of T47D cell lysates; settings: T47D cells, 72 hr
Procedure: as §3

[4] = 0.1 μg/ml TPA, 0.1 μg/ml MEZ or 0.25 μg/ml ADMB
[5] = 0.1 μg/ml TPA, 0.1 μg/ml MEZ or 0.25 μg/ml ADMB, presence or absence of 0.1 μg/ml H-7, CU18 antibody
[6] = 0.1 μg/ml TPA, 0.1 μg/ml MEZ or 0.25 μg/ml ADMB, presence or absence of 0.1 μg/ml H-7
[7] = 72 hr, 0.1 μg/ml TPA or MEZ, presence or absence of 0.1 μg/ml H-7, FACStar
[8] = 72 hr, 500 units/ml IFN-β or 50 units/ml IFN-γ
[9] = 72 hr, 500 units/ml IFN-β or 50 units/ml IFN-γ, presence or absence of 1.0 μg/ml H-7, Coulter Epics IV FACS
[10] = 500 units/ml IFN-β or 50 units/ml IFN-γ, presence or absence of 1.0 μg/ml H-7

Molecule	efficacy of upregulation of HLA Class II antigens (fold-change in MFI, FIG. 2) (HLA Class II antigens; 72 hr, 0.1 μg/ml of ADMB, TPA or MEZ)	BCA 225 Expression, level of enhancement relative to control (equivalent to 1.0) (BCA 225 [1]; [4])	BCA 225 Expression (BCA 225 [1]; [5])	BCA 225 Shedding (BCA 225 [2]; [6]) [ng/ml/10^6 cells]	BCA 225 Shedding, level of enhancement relative to control (equivalent to 1.0) (BCA 225 [2]; [6])	ability to induce shedding of BCA 225 (BCA 225 [2])	BCA 225 Synthesis (BCA 225 [3]; [6]) [ng/mg protein]	BCA 225 Synthesis, level of enhancement relative to control (equivalent to 1.0) (BCA 225 [3]; [6])	HLA Class II level of upregulation versus untreated control cells (equivalent to 1.0) (HLA Class II antigens; 72 hr, 0.1 μg/ml TPA or MEZ)	Antigenic Expression (MFI) HLA Class II (HLA Class II antigens; [7])	HLA Class II relative increase in expression versus untreated controls (equivalent to 1.0) (HLA Class II antigens; [8])	Antigenic Expression (MFI) HLA Class II (HLA Class II antigens; [9])	BCA 225 Expression (BCA 225 [1]; [10])	BCA 225 Expression, relative change in comparison with controls (equivalent to 1.0) (BCA 225 [1]; [10])	BCA 225 Shedding (BCA 225 [2]; [10]) [ng/ml/10^6 cells]	BCA 225 Shedding, relative change in comparison with controls (equivalent to 1.0) (BCA 225 [2]; [10])	BCA 225 Synthesis (BCA 225 [3]; [10]) [ng/mg protein]	BCA 225 Synthesis, relative change in comparison with controls (equivalent to 1.0) (BCA 225 [3]; [10])	fold increase in HLA Class II expression (HLA Class II antigens) [fold]
CCCCCCCCCCN(C)c1cc(CO)cc(NC(C)=O)c1 [ADMB, 3-(N-acetylamino)-5-(N-decyl-N-methylamino)-benzyl alcohol]	somewhat more effective than TPA and MEZ	2.0	12,825 MFI	26	0.9	did not induce this effect	299	1.8											
CC1CNCCN1S(=O)(=O)c1cccc2cnccc12.Cl.Cl (stereo not drawn) [H-7, 1-(5-isoquinolinesulfonyl)-2-methylpiperazine dihydrochloride]		0.8	5,428 MFI	23	0.8		142	0.9	(1.3)^b	4,563 MFI	1.2	3,490 MFI	2,560 MFI	0.9	38	0.8	230	1.0	
C=C(C)[C@@]12O[C@@]3(c4ccccc4)O[C@@H]1[C@@H]1[C@@H]4O[C@]4(CO)[C@@H](O)[C@]4(O)C(=O)C(C)=C[C@H]4[C@@]1(O3)[C@H](C)[C@H]2OC(=O)/C=C/C=C/c1ccccc1 [MEZ, mezerein]		2.5	16,065 MFI	147	5.3	enhance shedding of BCA 225	507	3.1	(3.0)	10,260 MFI									
CCCCCCCCCCCCCC(=O)O[C@@H]1[C@@H](C)[C@@]2(O)[C@@H](C=C(CO)C[C@]3(O)C(=O)C(C)=C[C@@H]23)[C@H]2C(C)(C)[C@]12OC(C)=O [TPA, 12-0-tetradecanoyl-phorbol-13-acetate]		1.8	11,696 MFI	84	3.0	enhance shedding of BCA 225	394	2.4	(2.9)	9,984 MFI									
IFN-γ: recombinant human immune interferon produced in Escherichia coli (protein, UniProt P01579 24-161, looked up) Interferon gamma: QDPYVKEAENLKKYFNAGHSDVADNGTLFLGILKNWKEESDRKIMQSQIVSFYFKLFKNFKDDQSIQKSVETIKEDMNVKFFNSNKKKRDDFEKLTNYSVTDLNVQRKAIHELIQVMAELSPAAKTGKRKRSQMLFRG											69.2	202,102 MFI	9,069 MFI	3.2	64	1.4	722	3.2	69
IFN-β: recombinant human fibroblast interferon with a serine substituted for a cysteine at position 17 (protein, UniProt P01574 22-187, looked up, variant C17S) Interferon beta: MSYNLLGFLQRSSNFQSQKLLWQLNGRLEYCLKDRMNFDIPEEIKQLQQFQKEDAALTIYEMLQNIFAIFRQDSSSTGWNETIVENLLANVYHQINHLKTVLEEKLEKEDFTRGKLMSSLHLKRYYGRILHYLKAKEYSHCAWTIVRVEILRNFYFINRLTGYLRN											10.8	31,413 MFI	5,716 MFI	2.0	69	1.5	374	1.7	11
